Measured values reported in patent publication US8247556B2, “Method for preparing 6-substituted-7-aza-indoles” (Amgen Inc., priority 2005, dated 2012).
pIC50: −log10 of the molar value.

Key:
[1] = tested on: VEGF-stimulated HUVEC proliferation (Human Umbilical Vein Endothelial cells); experiment: HUVEC Proliferation Assay; type: cell-based; conditions: VEGF 50 ng/mL, 72 h, CyQuant fluorescent dye, read-out: inhibited VEGF-stimulated HUVEC proliferation at a level
In short: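 HUVEC (passage 2–3) were seeded in DMEM+10% FBS for 22 h, then pre-incubated 2–3 h with 5-point, 5-fold compound dilutions (0.25% DMSO). They were then stimulated with VEGF (50 ng/mL final) for 72 h at 37 °C. Proliferation was read by CyQuant fluorescence (485/530 nm) after freeze-thaw, and IC50 came from a 4-parameter fit.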

[2] = target: T1, CYP 2D6 (Homo sapiens, UniProt P10635); experiment: Human Liver Microsome CYP 2D6 Inhibition; type: in vitro ADME; conditions: human liver microsomes, bufuralol substrate; read-out: inhibited CYP2D6 microsomes, IC50
T1 construct: followed by 555.6 ml of 20 mg/mL HLM (BD Gentest); tissue BD Gentest; host or cells: human liver microsomes
In short: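 Pooled human liver microsomes with bufuralol in potassium phosphate pH 7.4, preincubated with inhibitor at 37 °C; reaction started with NADPH, quenched after 5 min with 0.1% TFA in acetonitrile. 1′-OH-bufuralol quantified by LC-MS with deuterated internal standard; IC50 determined, quinidine 500 nM as control.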

[3] = target: T2, CYP 3A4 (Homo sapiens, UniProt P08684); experiment: Human Liver Microsome CYP 3A4 Inhibition; type: in vitro ADME; conditions: human liver microsomes, midazolam substrate; read-out: inhibited CYP3A4 microsomes, IC50
T2 construct: followed by 222.2 ml of 20 mg/mL HLM (BD Gentest); tissue BD Gentest; host or cells: human liver microsomes
Experimental: Determining the IC-50 for Human Liver Microsome CYP 3A4 Inhibition
Postassium Phosphate Buffer pH 7.4 (39.667 mL) is chilled in an ice bath and added to a 50 ml plastic tube. A 2 mM midazolam solution is prepared. 111.1 ul of 2 mM midazolam is added to the buffer followed by 222.2 ml of 20 mg/mL HLM (BD Gentest). The incubation mixture was gently inverted and equilibrated at 37° C. for 5 min. A stock inhibitor solution is prepared, such as in DMSO. Incubation mixture (801 ul) is added into 96-well, 1.2 mL plastic tubes. Inhibitor is added at various concentrations (e.g. 30 uM to 120 nM). The tubes are sealed and mix by inverting 5 times gently. The incubation mixture containing inhibitor (270 uL) is added by aliquot into wells of a 1 mL, 96-well block (duplicate). The block is placed into a 37° C. water bath and equilibrated for 3 min. 10 mM NADPH (30 ml) is added to all samples. After 5 minutes, the reactions are stopped by adding 300 ml of Quench Solution [0.1% TFA in CH3CN]. 1′-OH-Midazolam-d313C (2 mg/mL 30 uL) is added, the block is gently vortexed then centrifuged at 3000 rpm for 10 minutes at 4° C. 50 μL of supernatant from all samples is added by aliquot into a shorter, 96-well block. The aliquoted supernatants are pooled with other assay(s) and HPLC Grade Water (50 ul) is added to all samples. After covering and shaking by vortex gently for 2 minutes, the solutions were analyzed by LC-MS (API 3000,5% MeOH w/0.1% AcOH to 95% MeOH w/0.1% AcOH). 37 nM ketoconazole is used as a control.

T1 sequence (P10635 whole entry): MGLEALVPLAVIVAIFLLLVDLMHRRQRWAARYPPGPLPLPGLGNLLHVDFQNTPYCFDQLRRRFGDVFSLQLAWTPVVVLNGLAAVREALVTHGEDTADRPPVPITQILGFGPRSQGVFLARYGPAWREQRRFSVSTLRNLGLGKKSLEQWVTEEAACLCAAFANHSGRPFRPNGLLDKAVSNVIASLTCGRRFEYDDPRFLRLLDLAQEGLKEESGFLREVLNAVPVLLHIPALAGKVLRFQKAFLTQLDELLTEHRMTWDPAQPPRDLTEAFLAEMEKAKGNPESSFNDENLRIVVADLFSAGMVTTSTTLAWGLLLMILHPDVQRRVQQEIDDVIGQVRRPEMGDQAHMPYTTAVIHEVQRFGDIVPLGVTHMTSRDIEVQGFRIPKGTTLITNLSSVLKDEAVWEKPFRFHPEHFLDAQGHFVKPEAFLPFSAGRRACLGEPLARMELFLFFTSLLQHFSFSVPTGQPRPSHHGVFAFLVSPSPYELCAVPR
T2 sequence (P08684 whole entry): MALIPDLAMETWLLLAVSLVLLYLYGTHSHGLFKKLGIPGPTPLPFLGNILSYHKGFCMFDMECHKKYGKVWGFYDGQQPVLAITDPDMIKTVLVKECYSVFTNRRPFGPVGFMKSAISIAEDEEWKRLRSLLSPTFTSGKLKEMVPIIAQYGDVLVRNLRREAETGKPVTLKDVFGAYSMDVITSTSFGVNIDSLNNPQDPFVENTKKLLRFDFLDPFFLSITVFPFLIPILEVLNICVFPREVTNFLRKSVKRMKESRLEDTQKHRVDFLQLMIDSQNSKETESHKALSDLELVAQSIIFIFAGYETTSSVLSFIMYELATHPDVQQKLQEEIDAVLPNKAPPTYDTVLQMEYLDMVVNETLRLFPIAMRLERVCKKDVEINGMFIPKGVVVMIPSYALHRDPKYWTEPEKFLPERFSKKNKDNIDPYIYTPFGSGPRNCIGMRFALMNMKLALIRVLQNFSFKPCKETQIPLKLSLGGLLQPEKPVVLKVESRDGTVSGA

O=C(Nc1ccc(OC(F)(F)F)cc1)c1cc(F)cnc1NCc1ccnc2[nH]ncc12 [Example 126, 5-Fluoro-2-((1H-pyrazolo[3,4-b]pyridin-4-ylmethyl)amino)-N-(4-((trifluoromethyl)oxy)phenyl)-3-pyridinecarboxamide] showed a pIC50 [1] greater than 6.30, a pIC50 [2] of less than 4.70 and a pIC50 [3] of less than 4.70.

Compound CC1(C)CNc2cc(NC(=O)c3cc(F)cnc3NCc3ccnc4[nH]ccc34)ccc21 [Example 130, N-(3,3-Dimethyl-2,3-dihydro-1H-indol-6-yl)-5-fluoro-2-((1H-pyrrolo[2,3-b]pyridin-4-ylmethyl)amino)-3-pyridinecarboxamide] has a pIC50 [1] greater than 6.30, a pIC50 [2] of less than 4.70 and a pIC50 [3] of less than 4.70.
